Experimental data from the NIST ThermoML archive (doi:10.1016/j.jct.2015.08.024).
Numbers after ± are expanded uncertainties.

Settings: Liquid, Closed cell (Static) method

Structure (SMILES) | vapor or sublimation pressure (323.15 K) | vapor or sublimation pressure (333.15 K) | vapor or sublimation pressure (343.15 K) | vapor or sublimation pressure (353.15 K)
FC(F)CC(F)(F)F [1,1,1,3,3-pentafluoropropane] | 344.4 ± 1.6 kPa | 463.2 ± 1.9 kPa | 609.8 ± 2.4 kPa | 789.8 ± 2.9 kPa
CC(F)F [1,1-difluoroethane] | 1177.3 ± 3.7 kPa | 1500.6 ± 4.7 kPa | 1886.8 ± 5.9 kPa | 2342.7 ± 7.3 kPa
